Reference: publication PMC9828300 (2022)

Columns and labels:
[1] = test system: Olig (oligonucleotide fragment of the UCP1 gene promoter; Oligo) (DNA, G4) CGAGGGTGGGTAGGAGGGGACGCGGGGACT; test: UV-vis absorption; details: 100 mM KCl; 10 mM Tris-HCl pH 7.4, 25°C; 6 μM DNA, 24 μM berberine; ~45% hypochromicity, 340 to 348 nm
[2] = test system: Olig (oligonucleotide fragment of the UCP1 gene promoter; Oligo) (DNA, G4) CGAGGGTGGGTAGGAGGGGACGCGGGGACT; test: fluorescence enhancement; details: 100 mM KCl; 10 mM Tris-HCl pH 7.4, 25°C; 6 μM DNA, 24 μM berberine; excitation 280 nm
[3] = test system: Olig (oligonucleotide fragment of the UCP1 gene promoter; Oligo) (DNA, G4) CGAGGGTGGGTAGGAGGGGACGCGGGGACT; test: native gel electrophoresis; details: 100 mM KCl; 10 mM Tris-HCl pH 7.4, 4°C overnight; 6 μM DNA, 24 μM berberine; Uni-G4 to Tetra-G4

Measured: binding

COc1ccc2cc3[n+](cc2c1OC)CCc1cc2c(cc1-3)OCO2
yes: all assays above
